Assay results as given in patent US7947661B2, “Compounds for the treatment of marihuana dependence, withdrawal, and usage” (priority 2004, dated 2011).

How the values were obtained:
[1] = system: cocaine-dependent subjects; test: Weekly marihuana use from daily diaries, citicoline vs placebo for 8 weeks; assay type: in vivo, human; conditions: citicoline treatment weeks 3-10, not dependent on cannabis
Method: FIG. 1 is a graph of a time course of weekly marihuana use in citicoline- and placebo-treated cocaine-dependent subjects. Subjects were treated with either citicoline or placebo for 8 weeks and then asked to keep track of their drug use patterns via a daily diary. Follow up weeks were conducted under a no drug condition.
Compared to placebo treatment, marihuana use was reduced during citicoline treatment (weeks 3-10) as reported using the daily diaries. […] There is a group difference at baseline; this difference occurred because subjects were not matched for marihuana use in this study, and these subjects were not dependent on cannabis.

cocaine dependent person = test: Wrist accelerometer (ActiWatch) sleep wake activity and marihuana cigarettes in a representative subject; assay type: in vivo, human; conditions: 500 mg twice daily citicoline, days 10-14 vs baseline
Method: FIG. 2 is a graph of activity of a representative cocaine dependent person two weeks prior to (Baseline) and two weeks after (Citicoline) treatment with citicoline. […] Marihuana cigarettes are depicted by the arrows. Each strip recording is a 24 hour period of consecutive days. Activity was determined by use of an accelerometer worn on the subject'[…] Score). Data in FIG. 2 also show a decrease in the number of marihuana cigarettes smoked and a more normalized, diurnal sleep pattern after treatment with citicoline. Subjects were given either placebo or 500 mg, twice daily of citicoline. […] The subject's binge use of marihuana (arrows on second day) is clearly defined. The bottom 4 tracings of FIG. 2 show the same subject on days 10-14 of citicoline treatment. […] This pattern continued throughout the 8 weeks of treatment for this subject.

[2] = cited from earlier work
[3] = cited from earlier work; remark: listed apart in the source
[4] = cited from earlier work; remark: listed apart in the source

C[N+](C)(C)CCOP(=O)(O)OP(=O)([O-])OC[C@H]1O[C@@H](n2ccc(N)nc2=O)[C@H](O)[C@@H]1O [CDP-choline, cytidine 5′-diphosphocholine]
marihuana use (cigarettes per week, daily diaries) compared to placebo [1]: reduced | number of marihuana cigarettes smoked (cocaine dependent person): decrease | sleep wake profile (accelerometer activity) (cocaine dependent person; continued throughout 8 weeks): more normalized diurnal pattern of sleeping at night and became more active during the day | conversion into circulating metabolites ([2]; administered either orally or intravenously): rapidly converted into the two major circulating metabolites, choline and cytidine | CDP-choline and/or its metabolites absorbed ([2]; orally administered): more than 99% | excreted in feces ([2]; orally administered): less than 1% | excretion via lung ([2]; share of dose): 12.9% | excretion via urine ([2]; share of dose): 2.4% | rest of the dose metabolized and retained in tissues ([2]; share of dose): 83.9% | reported overdoses ([3]; in vivo): no reported cases of overdoses | toxicity symptoms on ingestion of large amounts ([3]; preclinical studies): common cholinergic symptoms (salivation, lacrimation, urination, defecation, and vomiting) | tolerability in mammals [4]: well tolerated

CC(=O)OC[C@H]1O[C@@H](n2ccc(=O)[nH]c2=O)[C@H](OC(C)=O)[C@@H]1OC(C)=O [triacetyl uridine]
tolerability in mammals [4]: well tolerated

CN(CC(=O)O)C(=N)N [Creatine, creatine]
tolerability in humans [4]: well tolerated at relatively high doses

O=c1ccn([C@@H]2O[C@H](CO)[C@@H](O)[C@H]2O)c(=O)[nH]1 [uridine]
tolerability in humans [4]: well tolerated | tolerability in mammals [4]: well tolerated
